One data set is described as follows: in vivo. The conditions noted are these: male, Wistar, rat, plasma, sc, 50 nmol/kg.
The nature of data set [1]: in vitro. The conditions noted are these: serum, pH 7.1. As for the experimental part: (§1) After the lapse of a predetermined time, a 30-μl portion was taken out of the reaction solution, transferred into 170 μl of 0.1% aqueous solution of trifluoroacetic acid (TFA), and stored at −80° C. until analysis.
(§2) Quantitative analysis was performed for AM contained in the thus-obtained samples of a reaction mixture with serum or plasma by using specific fluoroimmunoassay (Tosoh Corporation) with two antibodies differing in their recognition sites. […] In the figure, the abscissa represents reaction time (min), and the ordinate represents concentration of AM (UM).
In the figure, the abscissa represents reaction time (min), and the ordinate represents concentration of AM or an AM analog (μM).
In the figure, the abscissa represents the type of AM or an AM analog, and the ordinate represents residual rates of AM or an AM analog (%).

A short description of data set [2]: in vitro. The conditions noted are these: plasma, pH 7.1. As for the experimental part: as §1, §2
Data set [3] can be described thus: in vitro. The note with it: Experiment VIII; 10^−7 M, 37° C.; 1 hour after the beginning of reaction.
Data set [4] concerns the target AM type 1 receptor (AMI receptor) (UniProt Q16602 23-461; O60895 43-175, limits assumed). Kind of data set: cell-based or functional assay.

Results on 2 molecules are retold here after patent publication US12637499B2, “Adrenomedullin analog, method for producing the same, and pharmaceutical use thereof” (priority 2020, dated 2026).

Bridges are numbered along the chain shown (N, C = ends). Where no end group is shown, it is not given here.

Sequence of AM type 1 receptor (AMI receptor) (Q16602 23-461 limits assumed, chain 1 of 2): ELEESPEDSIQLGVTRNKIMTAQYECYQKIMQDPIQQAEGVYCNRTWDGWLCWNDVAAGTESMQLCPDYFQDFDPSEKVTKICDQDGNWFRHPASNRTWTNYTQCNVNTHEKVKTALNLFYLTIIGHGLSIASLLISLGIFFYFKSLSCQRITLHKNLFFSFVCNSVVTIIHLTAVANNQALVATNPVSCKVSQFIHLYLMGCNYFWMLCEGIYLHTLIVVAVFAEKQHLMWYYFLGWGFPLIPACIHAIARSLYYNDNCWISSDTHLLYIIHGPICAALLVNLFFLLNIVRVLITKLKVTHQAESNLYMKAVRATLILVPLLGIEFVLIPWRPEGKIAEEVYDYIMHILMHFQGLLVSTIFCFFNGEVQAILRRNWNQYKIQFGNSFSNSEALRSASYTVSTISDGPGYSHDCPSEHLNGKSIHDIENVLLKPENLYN
Sequence of AM type 1 receptor (AMI receptor) (O60895 43-175 limits assumed, chain 2 of 2): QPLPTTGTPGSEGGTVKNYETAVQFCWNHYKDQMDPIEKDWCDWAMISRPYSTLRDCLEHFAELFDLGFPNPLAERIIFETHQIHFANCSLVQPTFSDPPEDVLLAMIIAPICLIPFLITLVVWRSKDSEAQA
Method for in vivo: Eight-week-old male Wistar rats were purchased from Charles River Laboratories Japan, Inc. The rats were grown with normal feeds in the absence of specific pathogens under cycles of a 12-hour light period and a 12-hour dark period. […] To determine plasma AM concentrations, 50 nmol/kg of AM or an AM analog was subcutaneously administered. A peripheral blood sample was collected from the tail vein into a test tube (containing 21 μg of aprotinin and 0.3 mg of EDTA-2Na) at predetermined times (0, 15, 30, 60, and 120 minutes after administration). The test tube was centrifuged at 1,700×g to afford plasma.

Usually half-life stands for the time needed for the level to fall by half in the phase considered. Read a high half-life as slow decline. What is called amount remaining is the share of the starting amount still present when the sample was taken. Higher therefore signals greater stability. `CC[C@H](C)[C@H](NC(=O)[C@H](CCC(N)=O)NC(=O)[C@H](Cc1c[nH]cn1)NC(=O)[C@H](C)NC(=O)[C@H](CC(C)C)NC(=O)[C@H](CCCCN)NC(=O)[C@H](CCC(N)=O)NC(=O)[C@@H](NC(=O)[C@@H](NC(=O)[C@@H]1CSSC[C@H](NC(=O)CNC(=O)[C@H](Cc2ccccc2)NC(=O)[C@H](CO)NC(=O)[C@H](CCCNC(=N)N)NC(=O)[C@H](CC(C)C)NC(=O)CNC(=O)[C@H](CCC(N)=O)NC(=O)[C@H](Cc2ccccc2)NC(=O)[C@H](CC(N)=O)NC(=O)[C@H](CC(N)=O)NC(=O)[C@H](CCSC)NC(=O)[C@H](CO)NC(=O)[C@H](CCC(N)=O)NC(=O)[C@H](CCCNC(=N)N)NC(=O)[C@@H](N)Cc2ccc(O)cc2)C(=O)N[C@@H](CCCNC(=N)N)C(=O)N[C@@H](Cc2ccccc2)C(=O)NCC(=O)N[C@@H]([C@@H](C)O)C(=O)N1)[C@@H](C)O)C(C)C)C(=O)N[C@@H](Cc1ccc(O)cc1)C(=O)N[C@@H](CCC(N)=O)C(=O)N[C@@H](Cc1ccccc1)C(=O)N[C@H](C(=O)N[C@@H](CC(=O)O)C(=O)N[C@@H](CCCCN)C(=O)N[C@@H](CC(=O)O)C(=O)N[C@@H](CCCCN)C(=O)N[C@@H](CC(=O)O)C(=O)N[C@@H](CC(N)=O)C(=O)N[C@H](C(=O)N[C@@H](C)C(=O)N1CCC[C@H]1C(=O)N[C@@H](CCCNC(=N)N)C(=O)N[C@@H](CO)C(=O)N[C@@H](CCCCN)C(=O)N[C@H](C(=O)N[C@@H](CO)C(=O)N1CCC[C@H]1C(=O)N[C@@H](CCC(N)=O)C(=O)NCC(=O)N[C@@H](Cc1ccc(O)cc1)C(N)=O)[C@@H](C)CC)C(C)C)[C@@H](C)O` [hAM(1-52), YRQSMNNFQGLRSFGCRFGTCTVQKLAHQIYQFTDKDKDNVAPRSKISPQGY-CONH2, reference compound] gave a half-life in the data set “in vivo” of 73.7 min. Also, the figures for the share remaining at 4 h in “in vitro [1]” and in “in vitro [2]” were 0.2% and 85%, respectively. In addition, in “in vitro [3]”, the “presence in reaction mixture with human serum” value was “substantially disappeared”.

B1: [Phe-44]hAM(13-52) (peptide)
peptide: SFGCRFGTCTVQKLAHQIYQFTDKDKDNVAPFSKISPQGY-NH2
modifications: disulfide 4-9; N-terminus assumed
SMILES: CC[C@H](C)[C@H](NC(=O)[C@H](CCC(N)=O)NC(=O)[C@H](Cc1c[nH]cn1)NC(=O)[C@H](C)NC(=O)[C@H](CC(C)C)NC(=O)[C@H](CCCCN)NC(=O)[C@H](CCC(N)=O)NC(=O)[C@@H](NC(=O)[C@@H](NC(=O)[C@@H]1CSSC[C@H](NC(=O)CNC(=O)[C@H](Cc2ccccc2)NC(=O)[C@@H](N)CO)C(=O)N[C@@H](CCCNC(=N)N)C(=O)N[C@@H](Cc2ccccc2)C(=O)NCC(=O)N[C@@H]([C@@H](C)O)C(=O)N1)[C@@H](C)O)C(C)C)C(=O)N[C@@H](Cc1ccc(O)cc1)C(=O)N[C@@H](CCC(N)=O)C(=O)N[C@@H](Cc1ccccc1)C(=O)N[C@H](C(=O)N[C@@H](CC(=O)O)C(=O)N[C@@H](CCCCN)C(=O)N[C@@H](CC(=O)O)C(=O)N[C@@H](CCCCN)C(=O)N[C@@H](CC(=O)O)C(=O)N[C@@H](CC(N)=O)C(=O)N[C@H](C(=O)N[C@@H](C)C(=O)N1CCC[C@H]1C(=O)N[C@@H](Cc1ccccc1)C(=O)N[C@@H](CO)C(=O)N[C@@H](CCCCN)C(=O)N[C@H](C(=O)N[C@@H](CO)C(=O)N1CCC[C@H]1C(=O)N[C@@H](CCC(N)=O)C(=O)NCC(=O)N[C@@H](Cc1ccc(O)cc1)C(N)=O)[C@@H](C)CC)C(C)C)[C@@H](C)O
For B1, in data set [4], the “logarithmic values of 50%-effective concentration (pEC50) for intracellular cAMP concentration-increasing activity” value worked out at 8.29 pEC50.
